# Active and inactive are the calls of the source.
# Legend:
# ORF 73 = ORF 73 (Human herpesvirus 8, UniProt O40947); test: inhibitors of C-LANA binding to LBS DNA, dose response, biochemical, fluorescence polarization, cherry-picked samples (AID 504725); design: species or system Human gammaherpesvirus 8;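 note: fluorescence polarization of a labeled DNA duplex reporting LANA DNA binding; potency is for inhibitors that block LANA binding to the DNA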
# Fibrinogen beta chain [1] = molecular target: T1, Fibrinogen beta chain (Homo sapiens, UniProt P02675); test: Fluorescence polarization-based biochemical high throughput dose response assay to identify inhibitors that disrupt the binding of a cyclic peptide (Tn7) to the fibrin proteolytic product D-Dimer and fragment E complex [DD(E )].
# T1 sequence (P02675 whole entry, the tested form may be a part): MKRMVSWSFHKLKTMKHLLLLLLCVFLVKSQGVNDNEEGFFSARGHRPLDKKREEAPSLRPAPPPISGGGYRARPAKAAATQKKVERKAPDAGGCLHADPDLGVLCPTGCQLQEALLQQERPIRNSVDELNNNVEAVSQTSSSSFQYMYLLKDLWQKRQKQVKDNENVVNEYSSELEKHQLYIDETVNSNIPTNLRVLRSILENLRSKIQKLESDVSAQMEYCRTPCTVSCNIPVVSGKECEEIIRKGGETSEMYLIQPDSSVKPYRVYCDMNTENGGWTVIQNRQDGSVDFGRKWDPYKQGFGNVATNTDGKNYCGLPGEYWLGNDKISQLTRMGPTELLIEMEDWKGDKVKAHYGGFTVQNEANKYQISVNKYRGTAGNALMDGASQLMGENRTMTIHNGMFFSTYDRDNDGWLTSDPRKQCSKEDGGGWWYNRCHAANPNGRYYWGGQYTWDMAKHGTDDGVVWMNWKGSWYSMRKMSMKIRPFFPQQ
# Protein Rev = Protein Rev (Human immunodeficiency virus type 1 group M subtype B (isolate HXB2)(HIV-1), UniProt P04618); test: inhibitors of Rev binding to RRE RNA, dose response, biochemical, fluorescence polarization, HIV-1 (AID 434976); design: species or system Human immunodeficiency virus 1
# Protein Rev, sequence (P04618 whole entry, the tested form may be a part): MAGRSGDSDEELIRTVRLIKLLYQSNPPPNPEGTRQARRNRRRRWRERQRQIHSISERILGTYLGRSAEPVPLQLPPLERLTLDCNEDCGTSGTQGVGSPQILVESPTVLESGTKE
# Fibrinogen beta chain [2] = molecular target: T1, Fibrinogen beta chain; test: Fluorescence polarization-based biochemical high throughput dose response assay to identify inhibitors that disrupt the binding of a cyclic peptide (Tn6) to the fibrin proteolytic product D-Dimer and fragment E complex [DD(E )].
# [3] = molecular target: Female germline-specific tumor suppressor gld-1 (Caenorhabditis elegans, UniProt Q17339); test: inhibitors of GLD-1 binding to TGE RNA, dose response, biochemical, fluorescence polarization, C. elegans (AID 2802);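 note: fluorescence polarization of labeled TGE RNA bound by purified gld-1 protein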
# Female germline-specific tumor suppressor gld-1, sequence (Q17339 whole entry): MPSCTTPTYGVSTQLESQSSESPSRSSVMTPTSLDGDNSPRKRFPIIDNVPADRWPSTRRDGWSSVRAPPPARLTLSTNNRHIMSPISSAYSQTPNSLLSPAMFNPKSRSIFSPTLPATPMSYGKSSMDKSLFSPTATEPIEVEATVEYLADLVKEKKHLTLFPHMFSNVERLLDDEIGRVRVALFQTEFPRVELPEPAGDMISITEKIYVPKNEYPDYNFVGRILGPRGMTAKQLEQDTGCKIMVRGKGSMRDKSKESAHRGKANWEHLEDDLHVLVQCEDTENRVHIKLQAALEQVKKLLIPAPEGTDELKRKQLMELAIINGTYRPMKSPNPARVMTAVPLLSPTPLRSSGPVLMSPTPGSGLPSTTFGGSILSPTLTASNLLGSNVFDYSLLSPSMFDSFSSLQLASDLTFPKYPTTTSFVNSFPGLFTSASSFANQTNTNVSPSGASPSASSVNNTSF
# [4] = molecular target: Polyadenylate-binding protein 1 (Homo sapiens, UniProt P11940); test: PABP poly(A) RNA binding inhibitors, primary screen, biochemical, fluorescence polarization, uHTS (AID 2014)
# Polyadenylate-binding protein 1, sequence (P11940 whole entry): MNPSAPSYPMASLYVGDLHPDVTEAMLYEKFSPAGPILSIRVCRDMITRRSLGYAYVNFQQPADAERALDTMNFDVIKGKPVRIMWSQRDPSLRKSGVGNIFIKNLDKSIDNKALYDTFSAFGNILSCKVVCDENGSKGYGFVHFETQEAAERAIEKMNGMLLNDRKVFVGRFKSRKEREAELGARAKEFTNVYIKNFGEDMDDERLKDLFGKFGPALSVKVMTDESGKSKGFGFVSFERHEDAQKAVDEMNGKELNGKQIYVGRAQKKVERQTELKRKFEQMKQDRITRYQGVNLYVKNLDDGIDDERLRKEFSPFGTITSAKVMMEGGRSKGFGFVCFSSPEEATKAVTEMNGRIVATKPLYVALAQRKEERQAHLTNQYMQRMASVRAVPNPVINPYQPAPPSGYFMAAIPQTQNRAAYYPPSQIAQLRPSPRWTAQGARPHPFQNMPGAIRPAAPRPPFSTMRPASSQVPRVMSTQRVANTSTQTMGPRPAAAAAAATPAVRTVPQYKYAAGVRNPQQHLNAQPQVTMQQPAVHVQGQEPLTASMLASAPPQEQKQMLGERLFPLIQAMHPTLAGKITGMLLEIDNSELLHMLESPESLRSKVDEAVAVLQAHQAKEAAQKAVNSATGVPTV
# [5] = molecular target: Eukaryotic translation initiation factor 4H (Homo sapiens, UniProt Q15056); test: human eIF4H binding inhibitors, primary screen, translation initiation inhibitor project, biochemical, uHTS, fluorescence polarization (AID 2012)
# [6] = molecular target: FAD-linked sulfhydryl oxidase ALR (Homo sapiens, UniProt P55789); test: inhibitors of human ALR sulfhydryl oxidase, dose response, biochemical, H2O2 detection, luminescence, cherry-pick (AID 493248)
# FAD-linked sulfhydryl oxidase ALR, sequence (P55789 whole entry): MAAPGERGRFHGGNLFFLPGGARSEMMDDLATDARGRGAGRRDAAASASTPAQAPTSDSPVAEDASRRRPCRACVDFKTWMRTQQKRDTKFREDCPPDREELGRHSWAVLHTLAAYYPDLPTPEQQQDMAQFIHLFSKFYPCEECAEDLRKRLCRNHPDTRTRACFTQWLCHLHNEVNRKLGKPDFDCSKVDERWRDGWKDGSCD
# Phospholipase A2 = Phospholipase A2 (Homo sapiens, UniProt P04054); type: functional;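 note: confirmatory dose-response counterscreen on phospholipase A2, testing hits that came from an ultra-high-throughput screen for ATG4B inhibitors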
# Phospholipase A2, sequence (P04054 whole entry): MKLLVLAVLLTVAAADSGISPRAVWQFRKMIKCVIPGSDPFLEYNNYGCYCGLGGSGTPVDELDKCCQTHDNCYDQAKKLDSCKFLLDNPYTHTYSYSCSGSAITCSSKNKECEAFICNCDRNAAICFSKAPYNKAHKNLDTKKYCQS
# Streptokinase A = molecular target: T2, Streptokinase A (Streptococcus pyogenes serotype M1, UniProt P10520); test: S. pyogenes streptokinase expression inhibitors, potency, dose response, plasminogen activation absorbance, OD405 (AID 1914); type: functional, Streptococcus pyogenes M1 GAS;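 note: secreted streptokinase activity via plasminogen activation per viability signal from cell pellet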
# T2 sequence (P10520 whole entry): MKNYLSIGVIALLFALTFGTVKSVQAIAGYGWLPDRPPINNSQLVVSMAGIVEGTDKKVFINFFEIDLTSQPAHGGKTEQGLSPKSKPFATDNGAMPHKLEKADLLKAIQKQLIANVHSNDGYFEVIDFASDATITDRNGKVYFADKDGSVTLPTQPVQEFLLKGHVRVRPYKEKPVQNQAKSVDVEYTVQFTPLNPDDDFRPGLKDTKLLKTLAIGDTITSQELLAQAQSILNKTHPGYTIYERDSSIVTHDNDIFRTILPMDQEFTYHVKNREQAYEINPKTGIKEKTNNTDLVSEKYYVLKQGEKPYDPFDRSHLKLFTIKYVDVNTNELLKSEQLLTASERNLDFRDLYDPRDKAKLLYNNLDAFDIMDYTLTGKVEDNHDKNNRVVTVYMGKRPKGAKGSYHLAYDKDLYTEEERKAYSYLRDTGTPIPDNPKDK
# Cysteine protease ATG4B = molecular target: T3, Cysteine protease ATG4B (Homo sapiens, UniProt Q9Y4P1); type: functional;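 note: Fluorescence-based dose-response confirmation assay measuring inhibition of ATG4B activity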
# T3 sequence (Q9Y4P1 whole entry): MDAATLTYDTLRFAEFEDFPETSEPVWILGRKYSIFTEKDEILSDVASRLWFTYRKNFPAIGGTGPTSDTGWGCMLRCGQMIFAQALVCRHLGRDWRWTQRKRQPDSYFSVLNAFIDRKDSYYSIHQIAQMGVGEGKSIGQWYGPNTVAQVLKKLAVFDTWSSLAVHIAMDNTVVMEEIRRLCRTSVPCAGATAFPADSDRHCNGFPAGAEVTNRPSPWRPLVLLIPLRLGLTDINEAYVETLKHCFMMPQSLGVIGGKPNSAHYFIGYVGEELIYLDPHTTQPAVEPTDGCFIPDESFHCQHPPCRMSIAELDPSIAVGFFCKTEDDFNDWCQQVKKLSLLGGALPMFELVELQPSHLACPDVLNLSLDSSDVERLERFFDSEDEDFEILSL
# Streptococcus = test: Group A Streptococcus viability loss, dose response, counter-screen for streptokinase expression inhibitor project, luminescence, BacTiterGlo (AID 1915); type: functional, organism-based;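 note: potency for reduction of bacterial viability or growth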
# [7] = molecular target: T4, Endoribonuclease toxin MazF (Escherichia coli K-12, UniProt P0AE70); test: fluorescent RNA oligo signal without MazF, dose response, counter-screen for MazEF activator project, biochemical, fluorescence, single-stranded RNase substrate (AID 588502); type: functional
# T4 sequence (P0AE70 whole entry): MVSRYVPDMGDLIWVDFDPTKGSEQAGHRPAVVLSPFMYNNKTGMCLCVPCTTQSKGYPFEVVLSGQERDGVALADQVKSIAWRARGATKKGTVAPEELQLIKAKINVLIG
# [8] = molecular target: T4, Endoribonuclease toxin MazF; test: MazF toxin RNase activators, dose response, biochemical, fluorescence, single-stranded RNA substrate, uHTS hits (AID 588481); type: functional
# [9] = test system: Streptococcus sp. 'group A'; test: growth inhibition of control SK(-) GAS strain, dose response, counter-screen for streptokinase expression inhibitor project, luminescence, kanamycin, BacTiterGlo, confirmation (AID 1900); type: functional, organism-based
# Salmon testes DNA = test: DNA intercalators displacing acridine orange, dose response, artefact control for KSHV LANA DNA-binding inhibitor project, biochemical, fluorescence polarization, cherry-picked samples, set 2 (AID 504727); design: species or system Salmonidae
# Vero [10] = test: Vero E6 cell cytotoxicity, SAR follow-up, cytotoxicity control for West Nile virus antiviral project, synthesized analogs (AID 2244); type: functional; conditions: Chlorocebus sabaeus
# Vero [11] = test: cytotoxicity of synthesized analogs in Vero 76, SAR follow-up, cytotoxicity control for West Nile virus antiviral project, Vero 76 cells (AID 2414); type: functional; conditions: Chlorocebus sabaeus
# [12] = A Cell Based Assay for the Identification of Probe candidate Compounds with Anti- Venezuelan Equine Encephalitis virus. [Related pubchem assays: 2409, 2419, 1621, 2238, 2405, 2024, 2065, 2402, 2414, 1635, 1650, 2244 ]; type: functional
# Vero [13] = test: cytotoxicity of synthesized analogs in Vero cells, SAR follow-up, cytotoxicity control for West Nile virus antiviral project, cell-based, set II (AID 2402); type: functional; conditions: Chlorocebus sabaeus
# Vero [14] = test: West Nile virus CPE inhibition, SAR follow-up, cell-based, synthesized analogs (AID 2238); type: functional; conditions: Chlorocebus sabaeus
# [15] = molecular target: T5, Ubiquitin-conjugating enzyme E2 N (Homo sapiens, UniProt P61088); type: functional;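 note: Dose-response confirmation in a TR-FRET assay detecting UBC13-driven polyubiquitin chain formation, inhibition measured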
# T5 sequence (P61088 whole entry): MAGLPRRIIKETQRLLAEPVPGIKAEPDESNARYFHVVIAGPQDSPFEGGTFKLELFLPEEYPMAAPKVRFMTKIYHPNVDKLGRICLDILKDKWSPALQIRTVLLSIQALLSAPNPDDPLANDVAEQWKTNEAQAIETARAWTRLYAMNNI
# ORF 73, sequence (O40947 whole entry, the tested form may be a part): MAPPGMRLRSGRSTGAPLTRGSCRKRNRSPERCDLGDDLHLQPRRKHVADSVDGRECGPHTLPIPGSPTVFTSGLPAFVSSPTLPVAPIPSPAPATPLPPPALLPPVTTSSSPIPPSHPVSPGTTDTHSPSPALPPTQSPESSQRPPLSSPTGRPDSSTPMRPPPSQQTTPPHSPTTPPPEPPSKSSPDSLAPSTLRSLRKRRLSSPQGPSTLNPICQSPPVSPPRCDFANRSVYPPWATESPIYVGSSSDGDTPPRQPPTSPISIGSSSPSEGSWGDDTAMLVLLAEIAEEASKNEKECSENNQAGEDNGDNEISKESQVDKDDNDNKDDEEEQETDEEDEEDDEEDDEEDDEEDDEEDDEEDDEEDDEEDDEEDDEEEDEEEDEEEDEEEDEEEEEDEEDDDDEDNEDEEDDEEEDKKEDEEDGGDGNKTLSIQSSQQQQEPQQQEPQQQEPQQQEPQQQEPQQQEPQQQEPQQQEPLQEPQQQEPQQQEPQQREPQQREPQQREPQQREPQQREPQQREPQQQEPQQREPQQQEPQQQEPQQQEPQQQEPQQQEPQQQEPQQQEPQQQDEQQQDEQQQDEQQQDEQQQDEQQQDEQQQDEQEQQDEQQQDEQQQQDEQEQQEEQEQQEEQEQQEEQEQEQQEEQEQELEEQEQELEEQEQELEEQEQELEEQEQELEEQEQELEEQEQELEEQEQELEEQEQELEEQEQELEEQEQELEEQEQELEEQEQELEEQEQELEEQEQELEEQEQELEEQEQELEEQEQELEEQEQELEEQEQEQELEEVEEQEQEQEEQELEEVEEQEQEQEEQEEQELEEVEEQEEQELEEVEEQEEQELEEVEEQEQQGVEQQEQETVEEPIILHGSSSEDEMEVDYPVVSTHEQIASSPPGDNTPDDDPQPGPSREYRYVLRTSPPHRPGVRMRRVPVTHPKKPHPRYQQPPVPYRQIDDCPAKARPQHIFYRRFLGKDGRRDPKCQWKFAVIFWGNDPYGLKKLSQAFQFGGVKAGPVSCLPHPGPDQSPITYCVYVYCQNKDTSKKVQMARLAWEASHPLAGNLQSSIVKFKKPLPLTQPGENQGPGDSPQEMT
structure (smiles),measurement,setting,value
O=C(Cn1nc(Cc2ccncc2)c2ccccc2c1=O)N1CCN(C(=O)c2ccco2)CC1,AC50,ORF 73,11.4 µM (active)
COC(=O)c1ccc2c(c1)SC1=C(O)CCCC1=N2,IC50,Fibrinogen beta chain [1],> 83.3 µM (inactive)
same,IC50,Protein Rev,> 75.4 µM (not active)
same,IC50,Fibrinogen beta chain [2],17.9 µM (inactive)
same,IC50,[3],6.11 µM (active)
COc1ccc2[nH]c(O)c(N=NC(=O)Cc3cccs3)c2c1,IC50,[4],31 µM (active)
same,IC50,[5],11 µM (active)
O=C(O)C(c1ccccc1)N1C(=O)/C(=C\c2ccc(-c3cccc(Cl)c3)o2)SC1=S (configuration not stated),AC50,[6],3.54 µM (active)
same,IC50,Phospholipase A2,11.2 µM (active)
same,EC50,Streptokinase A,1.37 µM (active)
same,IC50,Cysteine protease ATG4B,4.41 µM (active)
same,EC50,Streptococcus,2.23 µM (active)
same,EC50,[7],97.1 µM (inactive)
same,EC50,[8],50.3 µM (inactive)
same,EC50,[9],2.37 µM (active)
same,AC50,Salmon testes DNA,40.7 µM (active)
CC1CC(C)CN(CCCNC(=O)c2cc3c(s2)-c2ccccc2OC3)C1 (configuration not stated),CC50,Vero [10],12.4 µM (active)
same,CC50,Vero [11],29.4 µM (active)
same,IC50,[12],15.5 µM (active)
same,CC50,Vero [13],11.2 µM (active)
same,IC50,Vero [14],> 40 µM (active)
same,IC50,[15],> 20 µM (inactive)

# — ChEMBL document CHEMBL1201862, “PubChem BioAssay data set” (2004)
